{
  "source": "patent US20100204117A1",
  "about": "“CGRP AS A THERAPEUTIC AGENT” (priority 2008, published 2010)",
  "key": {"HIV-1IIIB": {"tested_on": "HIV-1IIIB", "test": "HIV-1 antiviral assay in CEM-SS cells (MTS readout)", "format": "cell-based"}, "HCMV strain AD169": {"tested_on": "HCMV strain AD169", "test": "HCMV plaque formation assay in MRC-5 cells"}, "[1]": {"tested_on": "Primary Human endothelial cells (HUVEC)", "test": "Endothelial cell migration assay", "format": "cell-based", "conditions": "10 micrograms per ml, 22 hours"}, "spleen cells": {"tested_on": "spleen cells", "test": "Th1/Th2 cytokine profiling assay (Ovalbumin-restimulated spleen cells, CBA kit)", "format": "cell-based, Balb/c mice", "conditions": "10 micrograms per ml; Ovalbumin restimulation; 72 hours", "experimental": "The Balb/c mice (originated in 1923, it is a popular strain and is used in many different research disciplines. […] On day 50, spleens of the mice were harvested (3 weeks after last boost with Ovalbumin). […] Thereafter, additional Ovalbumin was added to the cells at 10 micrograms/ml for in vitro restimulation of the cells. 72 hours later, cell supernatants were harvested and assayed using the Becton Dickinson Mouse Th1/Th2 Cytokine CBA Kit. This kit can be used to measure Interleukin-2 (IL-2), Interleukin-4 (IL-4), Interleukin-5 (IL-5), Interferon-γ (IFN-γ), and Tumor Necrosis Factor-α (TNF-α) protein levels in a single sample. The kit performance has been optimized for analysis of physiologically relevant concentrations ([…] levels) of specific cytokine proteins in tissue culture supernatants and serum samples."}, "[2]": {"tested_on": "hepatitis B virus (HBV) ayw strain", "test": "HBV assay in HepG2-2.2.15 cells (secreted HBV DNA, TaqMan PCR)", "format": "cell-based", "conditions": "10 micrograms per ml, six days"}, "HUVEC": {"tested_on": "HUVEC", "test": "Endothelial tube formation assay", "format": "cell-based, human", "conditions": "10 micrograms per ml, 20 hours"}},
  "note": "No end group written: not given here.",
  "data": [
    {"compound": "Cc1cn([C@H]2C[C@H](N=[N+]=[N-])[C@@H](CO)O2)c(=O)[nH]c1=O", "note": "[AZT]", "values": [
      {"measurement": "antiviral activity of positive control compounds (HIV-1)", "setting": "HIV-1IIIB", "result": "expected levels of antiviral activity"}
    ]},
    {"compound": "Nc1nc(O)c2ncn(COC(CO)CO)c2n1", "note": "[Ganciclovir, reference compound]", "values": [
      {"measurement": "antiviral activity of positive control compound (HCMV)", "setting": "HCMV strain AD169; positive control", "result": "expected levels of antiviral activity"}
    ]},
    {"compound": "CC(C)(C)NC(=O)[C@@H]1CN(Cc2cccnc2)CCN1C[C@@H](O)C[C@@H](Cc1ccccc1)C(=O)N[C@H]1c2ccccc2C[C@H]1O", "note": "[indinavir]", "values": [
      {"measurement": "antiviral activity of positive control compounds (HIV-1)", "setting": "HIV-1IIIB", "result": "expected levels of antiviral activity"}
    ]},
    {"compound": "Ala-Cys-Asn-Thr-Ala-Thr-Cys-Val-Thr-His-Arg-Leu-Ala-Gly-Leu-Leu-Ser-Arg-Ser-Gly-Gly-Met-Val-Lys-Ser-Asn-Phe-Val-Pro-Thr-Asn-Val-Gly-Ser-Lys-Ala-Phe-NH2 (ACNTATCVTHRLAGLLSRSGGMVKSNFVPTNVGSKAF-NH2; ends and bridges not checked) [peptide 1, beta Calcitonin Gene-Related Peptide, commercially available known peptide]", "values": [
      {"measurement": "inhibition of the migration of human endothelial cells", "setting": "[1]", "result": "did not inhibit"},
      {"measurement": "inhibition of HCMV plaque formation as compared to the virus control experiment", "setting": "HCMV strain AD169; 10 micrograms per ml, 7-10 days", "result": "did not show any inhibition"},
      {"measurement": "IFNγ spleen cells; TH1 response (% of control)", "setting": "spleen cells", "result": "31.9 % of control"},
      {"measurement": "IL-2 spleen cells (% of control)", "setting": "spleen cells", "result": "104.8 % of control"},
      {"measurement": "IL-4 spleen cells; TH2 response (% of control)", "setting": "spleen cells", "result": "90.3 % of control"},
      {"measurement": "IL-5 spleen cells; TH2 response (% of control)", "setting": "spleen cells", "result": "40.1 % of control"},
      {"measurement": "TNF-a spleen cells; TH1 response (% of control)", "setting": "spleen cells", "result": "84.0 % of control"},
      {"measurement": "inhibition of HBV replication as compared to the virus control infection", "setting": "[2]", "result": 19.3, "unit": "%"},
      {"measurement": "inhibition of the tube formation of human endothelial cells", "setting": "HUVEC", "result": 12, "unit": "%"}
    ]}
  ]
}
